Assay results from PubChem BioAssay AID504814 (The Scripps Research Institute Molecular Screening Center, 2011).
pEC50: −log10 of the molar value. Calls of active or inactive are those of the source.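 The calls were made as follows: active = EC50 of 10 µM or lower; inactive = EC50 above 10 µM.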

The compounds below were run against Caspase-7 (Homo sapiens) (UniProt P55210) (assay: activators of human procaspase-7 D3A mutant – biochemical, absorbance, PC-7 D3A triple mutant, powder samples, selectivity assay for procaspase-3 activator project, late-stage follow-up (AID 504814)). Details: recombinant procaspase-7 D3A, Ac-DEVD-pNA absorbance.
Caspase-7 (Homo sapiens), sequence (P55210 whole entry D23A/D198A/D206A): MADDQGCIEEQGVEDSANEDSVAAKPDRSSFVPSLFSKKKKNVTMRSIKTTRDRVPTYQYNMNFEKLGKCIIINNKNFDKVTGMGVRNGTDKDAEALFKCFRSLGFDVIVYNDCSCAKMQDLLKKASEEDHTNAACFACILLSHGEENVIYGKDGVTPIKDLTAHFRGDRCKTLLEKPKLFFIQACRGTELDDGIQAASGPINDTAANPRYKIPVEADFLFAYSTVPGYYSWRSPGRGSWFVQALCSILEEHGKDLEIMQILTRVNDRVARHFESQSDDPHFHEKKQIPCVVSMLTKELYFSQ

| Compound | EC50 | pEC50 |
| --- | --- | --- |
| COC(=O)c1ccccc1NCc1cc(=O)oc2cc(O)c(O)cc12 | > 85.3 µM (inactive) | – |
| COc1ccccc1Nc1nc2c(C)cccc2cc1C#N | > 85.3 µM (inactive) | – |
| C=CCn1c(=NC(=O)c2cc(-c3cccs3)nc3ccccc23)sc2cc(S(N)(=O)=O)ccc21 | – | 5.11 |
| CC(NC(=O)c1cc2cc([N+](=O)[O-])ccc2oc1=O)C1CCCO1 (stereo not given) | inactive | – |
| CC(=O)Oc1cccc2c1C(=O)c1c(OC(C)=O)cc(C(=O)O)cc1C2=O | inactive | – |
